Reference: ChEMBL document CHEMBL1201862, “PubChem BioAssay data set” (2004)
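Exposure lasted 48 hours, with cells grown in 96-well plates and compounds tested at five concentrations. Here, GI50 denotes the concentration required for 50% inhibition of growth.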 Activity calls are given as the source filed them. No stated cut-off is given here; in the data, active = GI50 up to about 1.1 µM and inactive = higher.

Assays:
Assay in all cases: DTP human tumour cell line panel, 48 h
A498 = test system: A498
ACHN = test system: ACHN
CAKI-1 = test system: CAKI-1
COLO 205 = test system: COLO 205
EKVX = test system: EKVX
HOP-62 = test system: HOP-62
Malme-3M = test system: Malme-3M
NCI-H460 = test system: NCI-H460
OVCAR-4 = test system: OVCAR-4
OVCAR-5 = test system: OVCAR-5
RXF 393 = test system: RXF 393
U-251 = test system: U-251
UACC-257 = test system: UACC-257
SK-OV-3 = test system: SK-OV-3

Measured: GI50

CCOc1ccc(C(CN2CCOCC2)C(C)=O)cc1OC (stereo not given)
inactive: A498 26.5 µM | ACHN 14.2 µM | CAKI-1 10.8 µM | COLO 205 6.62 µM | EKVX 22.6 µM | HOP-62 21 µM | Malme-3M 18.5 µM | NCI-H460 18.4 µM | OVCAR-4 18.3 µM | OVCAR-5 19 µM | RXF 393 21 µM | U-251 18 µM | UACC-257 22.1 µM

CC1=NN(C(=O)Cc2ccccc2)C(=O)/C1=C\c1ccccc1O
inactive: A498 > 100 µM | ACHN > 100 µM | CAKI-1 > 100 µM | COLO 205 > 100 µM | EKVX > 100 µM | HOP-62 > 100 µM | Malme-3M > 100 µM | NCI-H460 > 100 µM | OVCAR-4 > 100 µM | OVCAR-5 > 100 µM | RXF 393 > 100 µM | SK-OV-3 > 100 µM | U-251 > 100 µM | UACC-257 > 100 µM

CN1CCCc2nc3ccccc3n2C1
inactive: A498 > 100 µM | ACHN > 100 µM | CAKI-1 > 100 µM | COLO 205 > 100 µM | EKVX > 100 µM | HOP-62 > 100 µM | Malme-3M > 100 µM | NCI-H460 > 100 µM | OVCAR-4 > 100 µM | OVCAR-5 > 100 µM | RXF 393 > 100 µM | SK-OV-3 > 100 µM | U-251 > 100 µM | UACC-257 > 100 µM

Cn1cc(NC(=O)c2cc(NC(=O)CCCCCCCCCCC(=O)Nc3cc(C(=O)Nc4cc(C(=O)NCCC(=N)N)n(C)c4)n(C)c3)cn2C)cc1C(=O)NCCC(=N)N
inactive: ACHN 29.9 µM | CAKI-1 46.8 µM | COLO 205 9.73 µM | EKVX 31 µM | HOP-62 25.9 µM | Malme-3M 2.18 µM | NCI-H460 18.6 µM | OVCAR-4 41.4 µM | OVCAR-5 67.3 µM | RXF 393 17.8 µM | SK-OV-3 > 100 µM | U-251 33 µM | UACC-257 7.8 µM

COC(=O)C1CCc2nnc(-c3ccccc3)n21 (stereo not given)
inactive: A498 > 100 µM | ACHN > 100 µM | CAKI-1 > 100 µM | COLO 205 > 100 µM | EKVX > 100 µM | HOP-62 > 100 µM | Malme-3M > 100 µM | NCI-H460 > 100 µM | OVCAR-4 > 100 µM | OVCAR-5 > 100 µM | RXF 393 > 100 µM | U-251 > 100 µM | UACC-257 > 100 µM

CN1c2ccccc2N(C(=O)c2ccc(Cl)cc2)C(CC(=O)O)c2cccn21 (stereo not given)
inactive: A498 > 100 µM | ACHN > 100 µM | CAKI-1 > 100 µM | COLO 205 > 100 µM | EKVX > 100 µM | HOP-62 > 100 µM | Malme-3M > 100 µM | NCI-H460 > 100 µM | OVCAR-4 > 100 µM | OVCAR-5 > 100 µM | RXF 393 > 100 µM | SK-OV-3 > 100 µM | UACC-257 > 100 µM
